Test results: patent publication US20050065189A1, “Thiazole derivatives as cannabinoid receptor modulators” (SOLVAY PHARMACEUTICALS B.V., priority 2003, published 2005)
pKi: −log10 of the molar value. Read-outs that look alike come from different tables or passages of the source.

Key:
[1] = biological target: T1, human cannabinoid CB1 receptor (Homo sapiens, UniProt P21554); assay: In vitro affinity for human cannabinoid CB1 receptors ([3H]CP-55,940 radioligand binding, CHO cell membranes); settings: for Ki: membranes of CHO cells stably transfected with human CB1, [3H]CP-55,940 radioligand, read-out: Receptor affinity Human CB1 pKi-value (converted)
T1 construct: expressed in transfected cells; host or cells: Chinese hamster ovary (CHO) cells, membrane preparation
Description: In vitro Affinity for Human Cannabinoid CB1 Receptors
(§1) The affinity of the compounds of the invention for cannabinoid CB1 receptors can be determined using membrane preparations of Chinese hamster ovary (CHO) cells in which the human cannabinoid CB1 receptor is stably transfected in conjunction with [^3H]CP-55,940 as radioligand. After incubation of a freshly prepared cell membrane preparation with the [^3H]-ligand, with or without addition of compounds of the invention, separation of bound and free ligand is performed by filtration over glassfiber filters. Radioactivity on the filter is measured by liquid scintillation counting.

[2] = biological target: T2, human cannabinoid CB2 receptor (Homo sapiens, UniProt P34972); assay: In vitro affinity for human cannabinoid CB2 receptors ([3H]CP-55,940 radioligand binding, CHO cell membranes)
T2 construct: expressed in transfected cells; host or cells: Chinese hamster ovary (CHO) cells, membrane preparation
Description: In Vitro Affinity for Human Cannabinoid CB2 Receptors
as §1, with “CB2” for “CB1”

T1 sequence (P21554 whole entry): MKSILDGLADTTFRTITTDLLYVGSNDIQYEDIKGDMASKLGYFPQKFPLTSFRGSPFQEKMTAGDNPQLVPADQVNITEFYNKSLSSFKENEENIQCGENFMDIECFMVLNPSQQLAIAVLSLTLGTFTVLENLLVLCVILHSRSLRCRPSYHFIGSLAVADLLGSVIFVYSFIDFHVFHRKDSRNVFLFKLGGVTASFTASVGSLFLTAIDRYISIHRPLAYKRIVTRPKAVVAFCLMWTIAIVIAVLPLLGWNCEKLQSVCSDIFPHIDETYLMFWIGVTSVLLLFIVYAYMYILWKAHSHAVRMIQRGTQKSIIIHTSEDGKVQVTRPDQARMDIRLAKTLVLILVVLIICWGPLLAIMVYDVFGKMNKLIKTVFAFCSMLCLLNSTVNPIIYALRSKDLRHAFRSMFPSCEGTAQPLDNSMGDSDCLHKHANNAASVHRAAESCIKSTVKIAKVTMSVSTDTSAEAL
T2 sequence (P34972 whole entry): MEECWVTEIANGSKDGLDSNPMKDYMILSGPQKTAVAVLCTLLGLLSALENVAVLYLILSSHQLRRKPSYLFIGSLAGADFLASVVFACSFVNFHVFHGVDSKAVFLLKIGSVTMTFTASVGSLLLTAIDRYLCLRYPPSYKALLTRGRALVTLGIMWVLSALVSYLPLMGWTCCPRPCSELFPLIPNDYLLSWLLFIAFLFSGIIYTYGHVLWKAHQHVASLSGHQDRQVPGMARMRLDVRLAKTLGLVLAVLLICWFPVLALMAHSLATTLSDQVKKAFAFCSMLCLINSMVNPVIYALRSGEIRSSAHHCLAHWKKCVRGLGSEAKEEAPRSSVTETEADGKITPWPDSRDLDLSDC

CCCCC(=O)c1nc(-c2ccc(Cl)cc2Cl)c(-c2ccccc2)s1 [Example 1, 1-[4-(2,4-dichlorophenyl)-5-phenylthiazol-2-yl]pentan-1-one]
Ki [1]: 251 nM

CCCCCCC(=O)c1nc(-c2ccccc2Cl)c(-c2ccccc2)s1 [Example 4]
Ki [1]: 158 nM

CCCCCc1nc(C(=O)NC23CC4CC(CC(C4)C2)C3)sc1-c1ccccc1 [Example 9, N-(adamant-1-yl)-4-(n-pentyl)-5-phenylthiazole-2-carboxamide]
Ki [1]: 15.8 nM | Ki ([2]; membranes of CHO cells stably transfected with human CB2, [3H]CP-55,940 radioligand, read-out: Receptor affinity Human CB2 pKi-value (converted)): 7.94 nM

CCCCCc1nc(C(=O)NC2CCCCC2)sc1-c1ccccc1 [Example 11]
pKi [1]: 6.60 | pKi [2]: 7.70
